According to US20250326744A1, “PIPERAZINE DERIVATIVE OR SALT THEREOF, AND PHARMACEUTICAL COMPOSITION” (priority 2022, published 2025):
Counter-ions that a name gives are not always drawn.

Key:
mexB (PA) strain = assay: Combinational effect with antibacterial agent against Pseudomonas aeruginosa (Test Examples 2 and 4): mexB (PA) strain with LVFX, TC or AZT at 1/4 MIC, EC99; assay type: cell-based; conditions: mexB (PA) strain, Test Example 4; for EC99, combinational effect with AZT, mexB (PA): combined with AZT at 1/4 MIC; for EC99, combinational effect with LVFX, mexB (PA): combined with LVFX at 1/4 MIC; for EC99, combinational effect with TC, mexB (PA): combined with TC at 1/4 MIC
Summary of the method: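 P. aeruginosa mexB (PA) strain, lacking MexCD-OprJ, MexEF-OprN and MexXY and overexpressing MexAB-OprM, grown 16–20 h in CAMHB (10^4–5 CFU/well) with LVFX, TC or AZT at ¼ MIC plus test compound at 0–800 μM. Growth read as OD595; EC99 is the lowest compound concentration giving ≥99% growth inhibition.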

S-3769 strain = assay: Combinational effect with antibacterial agent against Pseudomonas aeruginosa (Test Examples 2 and 4): S-3769 strain with AMK or GM at 1/4 MIC, EC99; assay type: cell-based; conditions: S-3769 strain, Test Example 4; for EC99, combinational effect with AMK, S-3769 strain: combined with AMK at 1/4 MIC; for EC99, combinational effect with GM, S-3769 strain: combined with GM at 1/4 MIC
Summary of the method: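 P. aeruginosa S-3769 (clinical isolate, MexY overexpressed) grown 16–20 h in CAMHB, 10^4 to 5 CFU/well, with AMK or GM at ¼ MIC plus test compound 0–800 μM. Growth read as OD595; EC99 is the lowest compound concentration giving ≥99% growth inhibition.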

Row | SMILES | EC99, combinational effect with AZT, mexB (PA) (mexB (PA) strain) | EC99, combinational effect with LVFX, mexB (PA) (mexB (PA) strain) | EC99, combinational effect with TC, mexB (PA) (mexB (PA) strain) | EC99, combinational effect with AMK, S-3769 strain (S-3769 strain) | EC99, combinational effect with GM, S-3769 strain (S-3769 strain)
1 | CCOc1cccc(F)c1CN1CCN(C(=O)[C@H](N)C2CCN(CCc3cc(Cl)ccc3-c3cc(O)ccc3Cl)CC2)CC1 [Example 586, Hydrochloride of (R)-2-amino-2-(1-(2-(2′,4-dichloro-5′-hydroxy-[1,1-biphenyl]-2-yl)ethyl)piperidin-4-yl)-1-(4-(2-ethoxy-6-fluorobenzyl)piperazin-1-yl)ethan-1-one] | S (EC99≤12.5 μM) | S (EC99≤12.5 μM) | S (EC99≤12.5 μM) | A (12.5 μM<EC99≤25 μM) | S (EC99≤12.5 μM)
2 | CSc1ccccc1CN1CCN(C(=O)[C@H](N)C2CCN(CCc3cc(Cl)ccc3-c3cc(O)cc(Cl)c3)CC2)CC1 [Example 610, (R)-2-amino-2-(1-(2-(3′-4-dichloro-5′-hydroxy-[1,1′-biphenyl]-2-yl)ethyl)piperidin-4-yl)-1-(4-(2-(methylthio)benzyl)piperazin-1-yl)ethan-1-one] | S (EC99≤12.5 μM) | S (EC99≤12.5 μM) | S (EC99≤12.5 μM) | S (EC99≤12.5 μM) | S (EC99≤12.5 μM)
3 | CSc1ccccc1CN1CCN(C(=O)[C@H](N)C2CCN(CCc3cc(Cl)ccc3-c3ccccc3F)CC2)CC1 [Example 601, Hydrochloride of (R)-2-amino-2-(1-(2-(4-chloro-2′-fluoro-[1,1-biphenyl]-2-yl)ethyl)piperidin-4-yl)-1-(4-(2-(methylthio)benzyl)piperazin-1-yl) ethan-1-one] | A (12.5 μM<EC99≤25 μM) | A (12.5 μM<EC99≤25 μM) | A (12.5 μM<EC99≤25 μM) | B (25 μM<EC99≤100 μM) | B (25 μM<EC99≤100 μM)
4 | CSc1ccccc1CN1CCN(C(=O)[C@H](N)C2CCN(CCc3cc(Cl)ccc3-c3ccccc3O)CC2)CC1 [Example 592, Hydrochloride of (R)-2-amino-2-(1-(2-(4-chloro-2′-hydroxy-[1,1-biphenyl]-2-yl)ethyl)piperidin-4-yl)-1-(4-(2-(methylthio)benzyl)piperazin-1-yl)ethan-1-one] | S (EC99≤12.5 μM) | S (EC99≤12.5 μM) | S (EC99≤12.5 μM) | A (12.5 μM<EC99≤25 μM) | B (25 μM<EC99≤100 μM)
5 | COc1cccc(NC(=O)C(C)(C)C)c1CN1CCN(C(=O)[C@H](N)C2CCN(CCc3cc(Cl)ccc3-c3ccccc3)CC2)CC1 [Example 527, Hydrobromide of (R)-N-(2-((4-(2-amino-2-(1-(2-(4-chloro-[1,1-biphenyl]-2-yl)ethyl)piperidin-4-yl)acetyl)piperazin-1-yl)methyl)-3-methoxyphenyl)pivalamide] | C (100 μM<EC99) | C (100 μM<EC99) | B (25 μM<EC99≤100 μM) | S (EC99≤12.5 μM) | S (EC99≤12.5 μM)
